Results taken from patent US7598072B2 (priority 2003, dated 2009).
Where two headings read alike, the source gives them in different places.

Key:
[1] = test system: ASLV-A vector RCASBP(A)-EGFP; format: biochemical, avian sarcoma and leukosis virus
[2] = test system: HIV [EnvA] pseudotyped virus; assay: HIV [EnvA] cell-free fusion/uncoating reaction, HIV-1 early DNA by real-time PCR; format: biochemical; conditions: 4.5 mM, 200 μg 293 S10 fraction, 6 hour incubation
ASLV [3] = conditions: 30 mM or higher concentrations of NH4Cl; cited from earlier work
ASLV [4] = format: cell-based, avian sarcoma and leukosis virus; conditions: 3 mM NH4Cl, data not shown

Nc1ncnc2c1ncn2[C@@H]1O[C@H](CO[P@](=O)(O)O[P@](=O)(O)O[P@@](=O)(O)S)[C@@H](O)[C@H]1O [adenosine 5′-[γ-thio]triphosphate]
effect on stimulation of ASLV early DNA synthesis in the cell-free system ([1]; 2.5 mM, 150 μg 293 S10 fraction, 6 hour incubation): markedly reduced
effect on stimulation of HIV-1 early DNA synthesis in the cell-free system [2]: markedly reduced

apyrase
effect on amount of ASLV early DNA products ([1]; 10 units/ml apyrase added 30 minutes or later after initiating the cell-free reaction): little or no effect
effect on amount of ASLV early DNA products ([1]; 10 units/ml apyrase, 150 μg 293 S10 fraction): reduced

Cl.N [NH4Cl, ammonium chloride]
ASLV fusion and entry into cells (ASLV [3]): effectively blocked
ASLV fusion and entry into cells (ASLV [4]): unaffected
